Source: patent publication US12415807B2, “PKC inhibitor solid state forms” (MingSight Pharmaceuticals, Inc., priority 2017, dated 2025)

Experiments:
[1] = biological target: Human PKC delta (Homo sapiens, UniProt Q05655); assay: In vitro PKC inhibition, PKC delta; type: biochemical
Description: (§1) The methods for these determinations have been described (Grant, et al. 2010, Eur. J. Pharmacol. 627:16-25).

[2] = tested on: pSHP2 (PKCβ cell assay); assay: pSHP2 (PKCβ cell assay); type: cell-based
Description: as §1

[3] = tested on: Interleukin-8 release; assay: Interleukin-8 release; type: cell-based
Description: as §1

Human PKC delta, sequence (Q05655 whole entry): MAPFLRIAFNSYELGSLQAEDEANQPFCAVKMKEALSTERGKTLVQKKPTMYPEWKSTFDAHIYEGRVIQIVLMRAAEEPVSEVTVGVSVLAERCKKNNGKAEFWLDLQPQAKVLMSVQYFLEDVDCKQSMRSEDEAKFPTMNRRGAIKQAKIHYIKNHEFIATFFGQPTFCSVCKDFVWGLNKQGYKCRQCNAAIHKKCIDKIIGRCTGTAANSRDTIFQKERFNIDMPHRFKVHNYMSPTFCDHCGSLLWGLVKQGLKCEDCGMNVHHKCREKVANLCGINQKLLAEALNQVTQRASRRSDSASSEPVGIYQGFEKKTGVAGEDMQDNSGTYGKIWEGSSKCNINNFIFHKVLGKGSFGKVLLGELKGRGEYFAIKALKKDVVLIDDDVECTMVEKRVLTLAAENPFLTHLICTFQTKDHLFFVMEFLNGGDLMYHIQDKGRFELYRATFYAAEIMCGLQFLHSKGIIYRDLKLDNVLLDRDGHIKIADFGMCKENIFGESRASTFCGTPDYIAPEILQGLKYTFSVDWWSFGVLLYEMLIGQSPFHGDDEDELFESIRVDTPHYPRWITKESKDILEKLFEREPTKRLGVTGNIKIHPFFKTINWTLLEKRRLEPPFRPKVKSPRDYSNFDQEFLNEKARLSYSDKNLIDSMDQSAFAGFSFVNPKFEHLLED

## Cc1ncc(F)c(Nc2n[nH]c3c2CN(C(=O)N2C[C@@H](C)N(CC4CCOCC4)C[C@@H]2C)C3(C)C)n1 [Compound 1, 5-{[(2S,5R)-2,5-dimethyl-4-(tetrahydro-2H-pyran-4-ylmethyl)piperazin-1-yl]carbonyl}-N-(5-fluoro-2-methylpyrimidin-4-yl)-6,6-dimethyl-1,4,5,6-tetrahydropyrrolo[3,4-c]pyrazol-3-amine]
[1]
  Inhibition of PKC delta (in words): does not significantly inhibit
[2]
  IC50: 9.8 nM
[3]
  IC50: 39 nM
